molecular target: T1, Recombinant human EP300 containing the bromodomain (EP300-BD (1040-1161)) (Homo sapiens, UniProt Q09472); assay: EP300 Alphascreen binding assay
T1 construct: Recombinant human EP300 bromodomain (EP300-BD (1040-1161)); made in house; host or cells: E. coli BL21-CodonPlus (DE3), modified pET vector
T1 sequence (Q09472 1040-1161): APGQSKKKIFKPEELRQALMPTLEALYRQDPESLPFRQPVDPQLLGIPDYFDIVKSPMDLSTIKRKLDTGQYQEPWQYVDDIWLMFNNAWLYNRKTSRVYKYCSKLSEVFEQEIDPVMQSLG
Method in brief: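 Displacement of a biotinylated acetyl-K56 histone H3 peptide from the N-His bromodomain construct (1040-1161) measured by AlphaScreen proximity, beads at 7.5 μg/ml final, read 60 min after addition. Protein, peptide and compound first incubated 1 h at room temperature, pH 7.5 HEPES buffer; IC50 by four-parameter logistic fit.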

Q: For `CCOc1cc(C(=O)O)cc(OCC)c1-n1cc(-c2cnn(C3CC3)c2)c2ncc(-c3c(C)noc3C)cc21` [P-0265, 4-(3-(1-cyclopropyl-1H-pyrazol-4-yl)-6-(3,5-dimethylisoxazol-4-yl)-1H-pyrrolo[3,2-b]pyridin-1-yl)-3,5-diethoxybenzoic acid], which IC50 is on record?
A: The IC50 was 0.1 to 1000 nM.

Q: With `CCOc1cc(C(=O)O)cc(OCC)c1-n1cc(-c2cnn(CCC#N)c2)c2ncc(-c3c(C)noc3C)cc21` [P-0266, 4-(3-(1-(2-cyanoethyl)-1H-pyrazol-4-yl)-6-(3,5-dimethylisoxazol-4-yl)-1H-pyrrolo[3,2-b]pyridin-1-yl)-3,5-diethoxybenzoic acid] as the compound, how does the IC50 read?
A: The IC50 was 0.1 to 1000 nM.

Q: Which IC50 does the source give for `CCOc1cc(C(=O)O)cc(OCC)c1-n1cc(-c2cnn(CC(=O)N(C)C)c2)c2ncc(-c3c(C)noc3C)cc21` [P-0267, 4-(3-(1-(2-(dimethylamino)-2-oxoethyl)-1H-pyrazol-4-yl)-6-(3,5-dimethylisoxazol-4-yl)-1H-pyrrolo[3,2-b]pyridin-1-yl)-3,5-diethoxybenzoic acid] here?
A: The IC50 was 0.1 to 1000 nM.

Q: `Cc1noc(C)c1-c1cnc2c(c1)c(-c1cc(C(=O)O)ccc1OC(F)(F)F)cn2-c1ccc(F)cc1F` [P-0268, 3-(1-(2,4-difluorophenyl)-5-(3,5-dimethylisoxazol-4-yl)-1H-pyrrolo[2,3-b]pyridin-3-yl)-4-(trifluoromethoxy)benzoic acid] was tested. Which IC50 did it give?
A: The IC50 was 0.1 to 1000 nM.

Q: With `Cc1noc(C)c1-c1cnc2c(-c3ccc(F)cc3F)cn(-c3c(OC(C)C)cc(C(=O)O)cc3OC(C)C)c2c1` [P-0269, 4-(3-(2,4-difluorophenyl)-6-(3,5-dimethylisoxazol-4-yl)-1H-pyrrolo[3,2-b]pyridin-1-yl)-3,5-diisopropoxybenzoic acid] as the compound, how does the IC50 read?
A: Its IC50 is 0.1 to 1000 nM.

Q: For `CCOc1cc(C(=O)O)cc(OCC)c1-n1cc(CC2CCC2)c2ncc(-n3c(C)nnc3C)cc21` [P-0270, 4-(3-(cyclobutylmethyl)-6-(3,5-dimethyl-4H-1,2,4-triazol-4-yl)-1H-pyrrolo[3,2-b]pyridin-1-yl)-3,5-diethoxybenzoic acid], which IC50 is on record?
A: Its IC50 is 1000 to 8000 nM.

Q: With `CCOc1cc(C(=O)O)cc(OCC)c1-n1cc(C2CCC(F)(F)CC2)c2ncc(-c3c(C)noc3C)cc21` [P-0271, 4-(3-(4,4-difluorocyclohexyl)-6-(3,5-dimethylisoxazol-4-yl)-1H-pyrrolo[3,2-b]pyridin-1-yl)-3,5-diethoxybenzoic acid] as the compound, how does the IC50 read?
A: The IC50 was 0.1 to 1000 nM.

Q: Which IC50 does the source give for `Cc1noc(C)c1-c1cnc2c(c1)c(-c1cnn(CC(=O)O)c1)cn2-c1ncccc1C#CC1CC1` [P-0272, 2-(4-(1-(3-(cyclopropylethynyl)pyridin-2-yl)-5-(3,5-dimethylisoxazol-4-yl)-1H-pyrrolo[2,3-b]pyridin-3-yl)-1H-pyrazol-1-yl)acetic acid] here?
A: Its IC50 is 0.1 to 1000 nM.

Q: For `Cc1noc(C)c1-c1cnc2c(c1)c(-c1ccc(C(=O)O)cc1OC(F)F)cn2-c1ccccc1` [P-0273, 3-(difluoromethoxy)-4-(5-(3,5-dimethylisoxazol-4-yl)-1-phenyl-1H-pyrrolo[2,3-b]pyridin-3-yl)benzoic acid], which IC50 is on record?
A: Its IC50 is 0.1 to 1000 nM.

Q: `Cc1noc(C)c1-c1cnc2c(-c3ccccc3)cn(-c3cc(C(=O)O)ccc3OC(F)(F)F)c2c1` [P-0274, 3-(6-(3,5-dimethylisoxazol-4-yl)-3-phenyl-1H-pyrrolo[3,2-b]pyridin-1-yl)-4-(trifluoromethoxy)benzoic acid] was tested. Which IC50 did it give?
A: Its IC50 is 0.1 to 1000 nM.

Q: How did the IC50 turn out when `Cc1noc(C)c1-c1cnc2c(c1)c(-c1ccc(C(=O)O)cc1OC(C)C)cn2-c1ccccc1` [P-0275, 4-(5-(3,5-dimethylisoxazol-4-yl)-1-phenyl-1H-pyrrolo[2,3-b]pyridin-3-yl)-3-isopropoxybenzoic acid] was run?
A: Its IC50 is 0.1 to 1000 nM.

Q: For `Cc1noc(C)c1-c1cnc2c(c1)c(-c1ccc(C(=O)O)cc1OC1CCC1)cn2-c1ccccc1` [P-0276, 3-cyclobutoxy-4-(5-(3,5-dimethylisoxazol-4-yl)-1-phenyl-1H-pyrrolo[2,3-b]pyridin-3-yl)benzoic acid], which IC50 is on record?
A: The IC50 was 0.1 to 1000 nM.

Q: For `Cc1noc(C)c1-c1cnc2c(c1)c(-c1ccc(C(=O)O)cc1OCC(F)F)cn2-c1ccccc1` [P-0277, 3-(2,2-difluoroethoxy)-4-(5-(3,5-dimethylisoxazol-4-yl)-1-phenyl-1H-pyrrolo[2,3-b]pyridin-3-yl)benzoic acid], which IC50 is on record?
A: The IC50 was 0.1 to 1000 nM.

Q: `Cc1noc(C)c1-c1cnc2c(c1)c(-c1ccc(C(=O)O)cc1OCC(F)(F)F)cn2-c1ccccc1` [P-0278, 4-(5-(3,5-dimethylisoxazol-4-yl)-1-phenyl-1H-pyrrolo[2,3-b]pyridin-3-yl)-3-(2,2,2-trifluoroethoxy)benzoic acid] was tested. Which IC50 did it give?
A: Its IC50 is 0.1 to 1000 nM.

Q: `Cc1noc(C)c1-c1cnc2c(c1)c(-c1ccc(C(=O)O)cc1OC(F)(F)F)cn2-c1ccc(F)cc1` [P-0279, 4-(5-(3,5-dimethylisoxazol-4-yl)-1-(4-fluorophenyl)-1H-pyrrolo[2,3-b]pyridin-3-yl)-3-(trifluoromethoxy)benzoic acid] was tested. Which IC50 did it give?
A: The IC50 was 0.1 to 1000 nM.

Q: Which IC50 does the source give for `Cc1noc(C)c1-c1cnc2c(c1)c(-c1cnn(CC(=O)O)c1)cn2C(C1CC1)C1CC1` [P-0280, 2-(4-(1-(dicyclopropylmethyl)-5-(3,5-dimethylisoxazol-4-yl)-1H-pyrrolo[2,3-b]pyridin-3-yl)-1H-pyrazol-1-yl)acetic acid] here?
A: The IC50 was 0.1 to 1000 nM.

Q: For `Cc1noc(C)c1-c1cnc2c(c1)c(-c1ccc(C(=O)O)cc1OC(F)(F)F)cn2-c1cnc(N2CCC2)nc1` [P-0281, 4-(1-(2-(azetidin-1-yl)pyrimidin-5-yl)-5-(3,5-dimethylisoxazol-4-yl)-1H-pyrrolo[2,3-b]pyridin-3-yl)-3-(trifluoromethoxy)benzoic acid], which IC50 is on record?
A: The IC50 was 0.1 to 1000 nM.

Q: For `Cc1noc(C)c1-c1cnc2c(c1)c(-c1ccc(C(=O)O)cc1OC(F)(F)F)cn2-c1ccc(S(C)(=O)=O)cc1` [P-0282, 4-(5-(3,5-dimethylisoxazol-4-yl)-1-(4-(methylsulfonyl)phenyl)-1H-pyrrolo[2,3-b]pyridin-3-yl)-3-(trifluoromethoxy)benzoic acid], which IC50 is on record?
A: The IC50 was 0.1 to 1000 nM.

Q: With `Cc1noc(C)c1-c1cnc2c(c1)c(-c1c(Cl)cc(C(=O)O)cc1OC(C)C)cn2C(C1CC1)C1CC1` [P-0283, 3-chloro-4-(1-(dicyclopropylmethyl)-5-(3,5-dimethylisoxazol-4-yl)-1H-pyrrolo[2,3-b]pyridin-3-yl)-5-isopropoxybenzoic acid] as the compound, how does the IC50 read?
A: The IC50 was 0.1 to 1000 nM.

Q: With `Cc1noc(C)c1-c1cnc2c(c1)c(-c1cc(C(=O)O)ccc1OC(F)(F)F)cn2C(C1CC1)C1CC1` [P-0284, 3-(1-(dicyclopropylmethyl)-5-(3,5-dimethylisoxazol-4-yl)-1H-pyrrolo[2,3-b]pyridin-3-yl)-4-(trifluoromethoxy)benzoic acid] as the compound, how does the IC50 read?
A: The IC50 was 0.1 to 1000 nM.

Q: How did the IC50 turn out when `Cc1noc(C)c1-c1cnc2c(c1)c(-c1ccc(C(=O)O)cc1OC(F)(F)F)cn2[C@H]1CCOC1` [P-0285, (S)-4-(5-(3,5-dimethylisoxazol-4-yl)-1-(tetrahydrofuran-3-yl)-1H-pyrrolo[2,3-b]pyridin-3-yl)-3-(trifluoromethoxy)benzoic acid] was run?
A: The IC50 was 0.1 to 1000 nM.

Q: For `Cc1noc(C)c1-c1cnc2c(c1)c(-c1ccc(C(=O)O)cc1OC(F)(F)F)cn2[C@@H]1CCOC1` [P-0286, (R)-4-(5-(3,5-dimethylisoxazol-4-yl)-1-(tetrahydrofuran-3-yl)-1H-pyrrolo[2,3-b]pyridin-3-yl)-3-(trifluoromethoxy)benzoic acid], which IC50 is on record?
A: The IC50 was 0.1 to 1000 nM.

Q: `CCn1cc(-n2cc(-c3ccc(C(=O)O)cc3OC(F)(F)F)c3cc(-c4c(C)noc4C)cnc32)c(C)n1` [P-0287, 4-(5-(3,5-dimethylisoxazol-4-yl)-1-(1-ethyl-3-methyl-1H-pyrazol-4-yl)-1H-pyrrolo[2,3-b]pyridin-3-yl)-3-(trifluoromethoxy)benzoic acid] was tested. Which IC50 did it give?
A: Its IC50 is 0.1 to 1000 nM.

— patent US11446287B2, “Compounds and methods for EP300 or CBP modulation and indications therefor” (Opna Immuno-Oncology SA, priority 2019, dated 2022)
